Assays:
[1] = test system: Pseudomonas aeruginosa PAO1 (wt); assay: Pulmonary model of infection: mice challenged with bacteria/seaweed alginate through the trachea; type: in vivo
Method: The first group was treated with 5-methylene-4-phenyl-dihydro-pyrrol-2-one (C219) as 12 μg/g body weight, given as injections twice a day for three days and the second group were treated with vehicle. (p=0.0008).
This model is reminiscent of the situation in CF patients or patients with a dysfunctional muccociliary escalator.
The treatment dosage of 5-methylene-4-phenyl-dihydro-pyrrol-2-one (C219) was 12 μg/g body weight, given as injections twice a day.
Mice were challenged with Pseudomonas aeruginosa PAO1 (wt) 5.2×10^6 CFU/lung (1.3×10^8 CFU/ml). Each group holds 10 mice, the treatments with C219 and Vehicle lasted for three days. The mortality was 10% in C219 and 30% in Vehicle groups. At day 5, the surviving mice were sacrificed.

[2] = test system: Murine L929 cells; assay: Cytotoxicity study, L929 cell number after 48 hour culture; type: cell-based; details: for Mean (cell number): L929, 48 hour; for % Inhibition: cell number vs non-challenged cultures
Method: Murine L929 cells are established at low density and, during the testing period, grow to confluency in plastic petri dishes. 24 hours after the dishes are inoculated, the medium on the test dishes is aspirated and replaced with a medium containing the compound to be tested. The cell monolayer is then cultured for a further 48 hour period. At the end of the test period, cells are harvested from the dishes and their numbers assessed and compared with unperturbed cultures. Differences in cell numbers are expressed as a percentage inhibition in comparison to non-challenged cultures.

[3] = test system: V. fischeri luxRI system; assay: N-acylated homoserine lactone (AHL) quorum sensing assay, GFP reporter strain; type: cell-based, E. coli; details: for ID40 at 3 nM OHHL: Table 4, number in parentheses, amount of compound lowering relative activity to 40%
Method: Compounds of the present invention were compared to compounds of the prior art in order using an AHL-quorum sensing assay which utilises a reporter strain that expresses Green Fluorescent Protein (GFP) in the presence of AHL signals. The assay is performed by measuring GFP output in the presence of the compound to be measured and comparing the output to a control. By using multiple samples at varying concentrations of compound and AHL, an inhibition index of compound activity can be generated. The inhibition index used in the present example is the relative amount of compound required to reduce GFP expression to 40% of the control. The inhibition index is termed AIC40. Lower values of AIC40 represent better inhibitors of the AHL quorum sensing system.
The reporter strain of bacterium used in this assay is E. coli into which the V. fischeri luxRI system has been engineered. A gfp gene is fused to the QS controlled luxI promoter as is described in (Andersen et al., 2001, and Andersen et al, 1998).
Measurement of AIC40 (ID40 at 3 nM OHHL)
Determination of the activity of compounds using the E. coli based luxRI construct was performed as follows.
In a 15 mL plastic tube, mix 3 mL of o.n. culture of the lux reporter strain with 12 mL fresh medium, incubate at 37° C. Label six tubes, 10, 20, two 50 and two 100. To each of the tubes, add OHHL (3-oxohexanoyl homoserine lactone) to a final concentration of 10, 20, 50, or 100 nM respectively in the AB medium (add enough medium to distribute across the appropriate number of wells). To the first row of the microplate (row A), add 200 ul of the OHHL/AB mixture. To the remaining rows (B-H) add 100 ul of the OHHL/AB mixture. To the first row (A) add compounds to be tested to the 200 ul mixture of OHHL/AB. Make a dilution series in the first 7 rows by transferring 100 μL from wells in row 1 to wells in row 2 and so on. Discard the remaining 100 μL from row 7. Add 100 μL diluted lux monitor to each well. Incubate the plate 2 hours at 37° C. and measure green fluorescence using the “Victor” plate reader.
Calculate ID40 for each column. To do this, calculate the relative activity in each well. […] Make a plot for each concentration of OHHL vs. the range of compound concentrations used. Calculate the amount of compound needed to lower the relative activity to 40%, this is termed inhibiting dose 40%, ID40. For each compound an inhibition index, AIC40, is found as follows: plot ID40 against its respective AHL concentration; AIC40 is the slope of the best straight line through the plotted points and origin.
The methodology for this assay is set out in 2(a) above.

[4] = test system: Staphylococcus epidermidis; assay: S. epidermidis growth inhibition (OD600 growth curves); type: cell-based; details: concentration of compound that significantly alters growth rate or final growth yield
Method: The growth inhibition of Staphylococcus epidermidis by the compounds of the present invention was determined by growing S. epidermidis in 96 well microtitre plates in Trypticase Soy Broth plus 0.5% glucose in a Wallac Victor2 microplate reader. Each compound was added to the wells at different concentrations and a no-compound control and a set of blank wells were also used. The OD600 was measured hourly.

[5] = test system: LasR; assay: LasR assay (unstable gfp fused to the elastase promoter); type: cell-based; details: Pseudomonas aeruginosa, read-out: LasR (conc)
Method: Compounds of the present invention were also assayed using a LasR assay. The LasR assay provides a measurement of quorum sensing inhibition activity. The higher the percentage inhibition. […] In the LasR assay, an unstable gfp has been fused to the elastase promoter, so that the amount of Gfp is regulated by the QS system. The plasmid is put into Pseudomonas aeruginosa which makes its own AHL signals. The assay is performed by adding the compounds to be tested to the system at the beginning of the experiment, at different concentrations. Gfp expression is measured at different times during growth, ending at the 24 h time point. The percentage fluorescence was determined at the time point when the fluorescence reached its maximum in the control, usually around 11-12 h after inoculation.

[6] = test system: P. aeruginosa biofilm; assay: Inhibition of biofilm formation in petri dishes, P. aeruginosa; type: cell-based; details: percent reduction of control
Method: (§1) Biofilm formation in petri dishes was measured using the following protocol as a compromise between flow cells and microtitire plate based assays. The method increases the number of replicates (relative to flow cells) that can be tested while still generating a biofilm that has typical structures, such as microcolonies, which are important as differentiated structures within the biofilm. The method consists of placing a surface, such as a glass slide (for unattached compounds) or a modified plastic coupon (for covalently attached compounds) on the bottom of a sterile petri dish and adding growth medium. The bacteria are inoculated into the dish and allowed to incubate at the appropriate temperature at 50 rpm. The medium is replaced at 24 h and allowed to incubate a further 24 h, after which time, the slides are removed and rinsed to remove loosely attached cells. For monitoring biofilm formation on glass slides, the cells are either stained with a suitable fluorescent stain and are visualised using the confocal microscope and the biofilm (as % surface coverage) is quantified, or the biofilm is stained with crystal violet, washed thoroughly to remove excess stain, and subsequently destained and the absorbance at […] is measured to determine the amount of biofilm, as a function of crystal violet staining.

[7] = test system: S. epidermidis biofilm; assay: Inhibition of biofilm formation in petri dishes, S. epidermidis; type: cell-based; details: 0.3 ug/ml; percent reduction of control
Method: as §1

[8] = test system: E. coli biofilm; assay: Inhibition of biofilm formation in petri dishes, E. coli; type: cell-based; details: 5 ug/ml; percent reduction of control
Method: as §1

[9] = 40 μg/ml, 30% = cytotoxic potential
[10] = Table 4 comparative results, first number of the cell, lower = better
[11] = inhibition index: slope of ID40 against AHL concentration, lower = better inhibitor, NE = no effect

C=C1NC(=O)C=C1c1ccccc1 [Compound 219, 5-methylene-4-phenyl-dihydro-pyrrol-2-one]
mortality ([1]; 12 μg/g body weight, injections twice a day for three days, 10 mice per group, Vehicle 30%): 10% | severity (LIMP) of P aeruginosa lung infection ([1]; LIMP = fraction of total lung area showing inflammation, 12 μg/g twice a day for three days, vs vehicle): significantly reduced the severity (LIMP) | lung bacterial load ([1]; day 5, 12 μg/g twice a day for three days, vs Vehicle, p=0.0008 (FIG. 1)): significantly reduced the lung bacterial load | Mean (cell number) ([2]; 10 μg/ml): 5.41E+05 | % Inhibition ([2]; 10 μg/ml): −10.3% | Mean (cell number) ([2]; 20 μg/ml): 4.95E+05 | % Inhibition ([2]; 20 μg/ml): −1.0% | Mean (cell number) ([2]; 40 μg/ml, E+05 = ×10^5): 4.74E+05 | % Inhibition [2, 9]: 3.4% | cytotoxicity (in words) ([2]; compared with compounds 226 and 223): surprisingly little or no cytotoxicity | AIC40 [3, 10]: significantly better AIC40 values than compounds 198 and 205

C=C1NC(=O)C=C1c1ccc(C(F)(F)F)cc1
minimal effective concentration [4]: 1 µg/mL | inhibition at 25 µg/mL [5]: 54% | AIC40 [3, 11]: 1

C=C1NC(=O)C=C1c1ccc(OC)cc1 [drawing 24]
inhibition at 25 µg/mL [5]: 36% | ID40 at 3 nM OHHL [3]: 61 nM | AIC40 [3, 10]: 5.4 | AIC40 [3, 11]: 5.4 | P. aeruginosa biofilm ([6]; 25 ug/ml): 76% (25 ug/ml)

CC1(O)NC(=O)C=C1c1cccc(F)c1 (centres unmarked)
minimal effective concentration [4]: > 100 µg/mL

CC1(O)NC(=O)C=C1c1ccc(F)cc1 (centres unmarked)
minimal effective concentration [4]: 100 µg/mL | inhibition at 100 µg/mL [5]: 28%

C=C1NC(=O)C=C1c1ccccc1F
S. epidermidis biofilm [7]: 60% (0.3 ug/ml) | minimal effective concentration [4]: 20 µg/mL | inhibition at 25 µg/mL [5]: 60% | AIC40 [3, 11]: 1.7

COc1cccc(C2=CC(=O)NC2(C)O)c1 (centres unmarked)
minimal effective concentration [4]: > 50 µg/mL

CC(C)CN1C(=O)C(c2ccccc2)=CC1=C(Br)Br [Compound 223]
Mean (cell number) ([2]; 10 μg/ml): 3.31E+05 | % Inhibition ([2]; 10 μg/ml): 24.1% | Mean (cell number) ([2]; 20 μg/ml): 2.94E+05 | % Inhibition ([2]; 20 μg/ml): 32.5% | Mean (cell number) ([2]; 40 μg/ml, E+05 = ×10^5): 2.07E+05 | % Inhibition [2, 9]: 52.4%

C=C1NC(=O)C=C1c1ccccc1 [drawing 20]
E. coli biofilm [8]: 95% (5 ug/ml) | minimal effective concentration [4]: 5 µg/mL | inhibition at 50 µg/mL [5]: 80% | ID40 at 3 nM OHHL ([3]; unit not given): 16.2 | AIC40 [3, 10]: 1.1 | AIC40 [3, 11]: 1.1 | P. aeruginosa biofilm ([6]; 10 ug/ml): 88% (10 ug/ml)

CCCC(O)C1=C(Br)/C(=C/Br)N(c2ccccc2)C1=O (centres unmarked) [reference compound]
AIC40 [3, 10]: 99

COc1ccccc1C1=CC(=O)NC1(C)O (centres unmarked)
minimal effective concentration [4]: > 50 µg/mL | inhibition at 100 µg/mL [5]: 41%

C=C1NC(=O)C=C1c1ccc(F)cc1 [Compound 257]
AIC40 [3, 10]: significantly better AIC40 values than compounds 198 and 205
